In patent publication US20090270363A1, “2-Aryl- and 2-Heteroarylthiazolyl Compounds, Methods for Their Preparation and Use Thereof” (Wyeth, priority 2008, published 2009):

Assays:
Assay type in all cases: cell-based
[1] = tested on: securin "knock out" cells F3 (Securin-/-); assay: Growth inhibition (sulforhodamine B, 5 days) of securin knock out cells F3; settings: for IC50: 120 h, securin knock out F3 cells, 5 days, SRB; for Selectivity Ratio F3: IC50 HCT116 / IC50 securin KO F3
Procedure: (§1) IC50 analysis was performed for selected fused bicyclic 2-aryl or 2-heteroarylthiazolyl compounds that were tested on HCT116 cells and Securin “knock out” cell lines.
(§2) Cell Culture—HCT116 and securin “knock out” cells. HCT116 and securin “knock out” cells (D8 and F3) were grown in RPMI+5% fetal bovine serum and gentamycin. They were maintained in a humidified 37° C. incubator with 5% CO2. Since the securin “knock out” cells have active chromosomal instability, cells were used at a low passage number of 2-13 passages. At or before passage 13 a new vial of cells was thawed and used for the screen. Cell seeding—HCT116 cells and securin “knock out” cells were trypsinized and suspended in RPMI+5% FBS at a density of 27,000 cells/mL. HCT116 and securin “knock out” cells were seeded separately in wells of a 96-well plate (Falcon Cat # 35-3872) at a cell density of 4000 cells per well. Cells were seeded in 150 μL of RPMI media containing 5% FBS and gentamycin. Cell seeding was performed under aseptic conditions. Cells were allowed to attach and grow overnight in a humidified 37° C. incubator.
(§3) Compound Dilution and Dispensation. A series of stock solutions, 10 mg/mL of fused bicyclic 2-aryl- or 2-heteroarylthiazolyl compounds to be tested, were brought to room temperature. The compounds were diluted 1:50 in RPMI+5% FBS (Highest concentration 200 μg/mL). The compounds were then serially diluted 1:3 across a deep-well titration plate resulting in final concentrations in the plate of 200, 66.7, 22.2, 7.4, 2.4, 0.8, 0.27, 0.091, 0.03, 0.01, and 0.0034 μg/mL with one well left without a compound. 50 μL of this dilution series was added to the 150 μL of cells to result in a final concentration of compound in with the cells of 50, 16.6, 5.5, 1.8, 0.6, 0.2, 0.068, 0.023, 0.0076, 0.0025, and 0.00084 μg/mL. The dilution and addition of compounds to the plates is performed using a Multimek 96 Robot (Beckman Coulter).
(§4) Incubation and analysis. After dosing, the cells in the 96 well plates were returned to the humidified 37° C. incubator. The compounds remained on the cells for 5 days. After 5 days, the cells were fixed to the plates with the addition of 50 μL of 50% (vol/vol) Trichloro Acetic Acid ([…]). The cells were fixed at 4° C. for 1 hour. The plates were washed 5 times in distilled water and allowed to dry. The cells were stained with 0.4% sulforhodamine B (Sigma) in 1% acetic acid. The cells were stained for 15 minutes at room temperature. The plates were then washed 3 times in 1% acetic acid. The plates were dried and the dye was solubilized in 10 mM Tris at pH 8.0. The plates were read on the Absorbence 560 setting on a Victor^2 V Model 1420 Multilabel HTS counter (Perkin Elmer).
(§5) Analysis of Results—IC50 data. Absorbence data was read off of the Victor and was converted to a percentage of the control (untreated) values. IC50 values were graphed and the point at which a 50% inhibition of the control level was determined. […] If the model was not able to determine an IC50, the IC50 was assigned to the lowest concentration that gives a 50% or greater decrease in absorbence compared to control levels. If the calculated IC50 value for a cell line exceeds the top concentration for the assay (typically 50 μg/mL), the assay was scored as >50.
(§6) Selectivity Ratio. The Selectivity Ratio is the ratio of IC50s between the parent cell line and the knock out cell line and is always a positive number and is typically an integer.

[2] = tested on: securin "knock out" cells D8 (Securin-/-); assay: Growth inhibition (sulforhodamine B, 5 days) of securin knock out cells D8; settings: for IC50: 120 h, securin knock out D8 cells, 5 days, SRB; for Selectivity Ratio D8: IC50 HCT116 / IC50 securin KO D8
Procedure: as §1, §2, §3, §4, §5, §6

[3] = tested on: HCT116 cells (Securin+/+, securin parental, HCT116 FB); assay: Growth inhibition (sulforhodamine B, 5 days) of securin parental cells; settings: Homo sapiens, HCT-116, 120 h, SRB
Procedure: as §1, §2, §3, §4, §5, §6

## Cc1cc(N(C)C)ccc1-c1nc2c(s1)[C@H](O)CCC2 [Example 99, (7R)-2-[4-(dimethylamino)-2-methylphenyl]-4,5,6,7-tetrahydro-1,3-benzothiazol-7-ol]
[1]
  IC50: 0.21 µM
  Selectivity Ratio F3: 810
[2]
  IC50: 0.24 µM
  Selectivity Ratio D8: 709
[3]
  IC50: ≥ 173 µM

## CC(C)OC(=O)c1cc(N(C)C)ccc1-c1nc2c(s1)C(O)CCC2 (stereo not shown) [Example 111, isopropyl 5-(dimethylamino)-2-(7-hydroxy-4,5,6,7-tetrahydro-1,3-benzothiazol-2-yl)benzoate]
[1]
  IC50: 1.4 µM
  Selectivity Ratio F3: 71
[2]
  IC50: 1.3 µM
  Selectivity Ratio D8: 75
[3]
  IC50: 100 µM

## C=CCOC(=O)c1cc(N(C)C)ccc1-c1nc2c(s1)C(O)CCC2 (stereo not shown) [Example 112, allyl 5-(dimethylamino)-2-(7-hydroxy-4,5,6,7-tetrahydro-1,3-benzothiazol-2-yl)benzoate]
[1]
  IC50: 0.72 µM
  Selectivity Ratio F3: 135
[2]
  IC50: 0.54 µM
  Selectivity Ratio D8: 182
[3]
  IC50: 97.3 µM

## CN(C)c1ccc(-c2nc3c(s2)C(O)CCC3)c(C(=O)OCc2ccoc2)c1 (stereo not shown) [Example 116, 3-furylmethyl 5-(dimethylamino)-2-(7-hydroxy-4,5,6,7-tetrahydro-1,3-benzothiazol-2-yl)benzoate]
[1]
  IC50: 0.82 µM
  Selectivity Ratio F3: 104
[2]
  IC50: 0.59 µM
  Selectivity Ratio D8: 145
[3]
  IC50: 85.2 µM

## CCCOC(=O)c1cc(N(C)C)ccc1-c1nc2c(s1)C(O)CCC2 (stereo not shown) [Example 121, propyl 5-(dimethylamino)-2-(7-hydroxy-4,5,6,7-tetrahydro-1,3-benzothiazol-2-yl)benzoate]
[1]
  IC50: 1.7 µM
  Selectivity Ratio F3: 44
[2]
  IC50: 0.69 µM
  Selectivity Ratio D8: 112
[3]
  IC50: 77.3 µM

## CN(C)c1ccc(-c2nc3c(s2)C(O)CCC3)c(C(=O)OCc2ccsc2)c1 (stereo not shown) [Example 122, 3-thienylmethyl 5-(dimethylamino)-2-(7-hydroxy-4,5,6,7-tetrahydro-1,3-benzothiazol-2-yl)benzoate]
[1]
  IC50: 2.1 µM
  Selectivity Ratio F3: 20
[2]
  IC50: 0.76 µM
  Selectivity Ratio D8: 55
[3]
  IC50: 42.2 µM

## CN(C)c1ccc(-c2nc3c(s2)C(O)CCC3)c(C(=O)OCc2cccs2)c1 (stereo not shown) [Example 123, 2-thienylmethyl 5-(dimethylamino)-2-(7-hydroxy-4,5,6,7-tetrahydro-1,3-benzothiazol-2-yl)benzoate]
[1]
  IC50: 4.4 µM
  Selectivity Ratio F3: 20
[2]
  IC50: 1.7 µM
  Selectivity Ratio D8: 52
[3]
  IC50: 90 µM

## CN(C)c1ccc(-c2nc3c(s2)C(O)CCC3)c(C(=O)OCc2cccnc2)c1 (stereo not shown) [Example 126, pyridin-3-ylmethyl 5-(dimethylamino)-2-(7-hydroxy-4,5,6,7-tetrahydro-1,3-benzothiazol-2-yl)benzoate]
[1]
  IC50: 2.5 µM
  Selectivity Ratio F3: 40
[2]
  IC50: 1.9 µM
  Selectivity Ratio D8: 54
[3]
  IC50: 100 µM

## CN(C)c1ccc(-c2nc3c(s2)C(O)CCC3)c(C(=O)OCc2ccncc2)c1 (stereo not shown) [Example 127, pyridin-4-ylmethyl 5-(dimethylamino)-2-(7-hydroxy-4,5,6,7-tetrahydro-1,3-benzothiazol-2-yl)benzoate]
[1]
  IC50: 6.3 µM
  Selectivity Ratio F3: 16
[2]
  IC50: 4.9 µM
  Selectivity Ratio D8: 20
[3]
  IC50: 100 µM

## CN(C)c1ccc(-c2nc3c(s2)C(O)CCC3)c(C(=O)OCc2ccccn2)c1 (stereo not shown) [Example 128, pyridin-2-ylmethyl 5-(dimethylamino)-2-(7-hydroxy-4,5,6,7-tetrahydro-1,3-benzothiazol-2-yl)benzoate]
[1]
  IC50: 2.6 µM
  Selectivity Ratio F3: 33
[2]
  IC50: 1.9 µM
  Selectivity Ratio D8: 45
[3]
  IC50: 86.7 µM

## C#CCOC(=O)c1cc(N(C)C)ccc1-c1nc2c(s1)C(O)CCC2 (stereo not shown) [Example 129, prop-2-yn-1-yl 5-(dimethylamino)-2-(7-hydroxy-4,5,6,7-tetrahydro-1,3-benzothiazol-2-yl)benzoate]
[1]
  IC50: 0.45 µM
  Selectivity Ratio F3: 172
[2]
  IC50: 0.36 µM
  Selectivity Ratio D8: 216
[3]
  IC50: 77.8 µM

## C/C=C/COC(=O)c1cc(N(C)C)ccc1-c1nc2c(s1)C(O)CCC2 (stereo not shown) [Example 130, (2E)-but-2-en-1-yl 5-(dimethylamino)-2-(7-hydroxy-4,5,6,7-tetrahydro-1,3-benzothiazol-2-yl)benzoate]
[1]
  IC50: 2.4 µM
  Selectivity Ratio F3: 32
[2]
  IC50: 2 µM
  Selectivity Ratio D8: 38
[3]
  IC50: 77.6 µM

## CC#CCOC(=O)c1cc(N(C)C)ccc1-c1nc2c(s1)C(O)CCC2 (stereo not shown) [Example 133, but-2-yn-1-yl 5-(dimethylamino)-2-(7-hydroxy-4,5,6,7-tetrahydro-1,3-benzothiazol-2-yl)benzoate]
[1]
  IC50: 1.8 µM
  Selectivity Ratio F3: 54
[2]
  IC50: 1.1 µM
  Selectivity Ratio D8: 87
[3]
  IC50: 96.5 µM

## CN(C)c1ccc(-c2nc3c(s2)C(O)CCC3)c(Br)c1 (stereo not shown) [Example 140, 2-[2-bromo-4-(dimethylamino)phenyl]-4,5,6,7-tetrahydro-1,3-benzothiazol-7-ol]
[1]
  IC50: 1.8 µM
  Selectivity Ratio F3: 21
[2]
  IC50: 0.57 µM
  Selectivity Ratio D8: 66
[3]
  IC50: 37.2 µM

## O=[N+]([O-])c1cc(N2CCCC2)ccc1-c1nc2c(s1)C(O)CCC2 (stereo not shown) [Example 151, 2-(2-nitro-4-pyrrolidin-1-ylphenyl)-4,5,6,7-tetrahydro-1,3-benzothiazol-7-ol]
[1]
  IC50: 0.053 µM
  Selectivity Ratio F3: 724
[2]
  IC50: 0.046 µM
  Selectivity Ratio D8: 832
[3]
  IC50: 38 µM

## C[S+]([O-])c1cc(N2CCCC2)ccc1-c1nc2c(s1)C(O)CCC2 (stereo not shown) [Example 155, 2-[2-(Methylsulfinyl)-4-pyrrolidin-1-ylphenyl]-4,5,6,7-tetrahydro-1,3-benzothiazol-7-ol]
[1]
  IC50: 0.17 µM
  Selectivity Ratio F3: 224
[2]
  IC50: 0.099 µM
  Selectivity Ratio D8: 390
[3]
  IC50: 38.8 µM

## OC1CCCc2nc(-c3ccc(N4CCCC4)cc3)sc21 (stereo not shown) [Example 158, 2-(4-pyrrolidin-1-yl-phenyl)-4,5,6,7-tetrahydro-benzothiazol-7-ol]
[1]
  IC50: 2.9 µM
  Selectivity Ratio F3: 54
[2]
  IC50: 1.7 µM
  Selectivity Ratio D8: 91
[3]
  IC50: 154 µM

## COC(=O)c1cc(N2CCCC2)ccc1-c1nc2c(s1)C(O)CCC2 (stereo not shown) [Example 161, 2-(7-Hydroxy-4,5,6,7-tetrahydro-benzothiazol-2-yl)-5-pyrrolidin-1-yl-benzoic acid methyl ester]
[1]
  IC50: 0.52 µM
  Selectivity Ratio F3: 128
[2]
  IC50: 0.4 µM
  Selectivity Ratio D8: 165
[3]
  IC50: 66.3 µM

## OCc1cc(N2CCCC2)ccc1-c1nc2c(s1)C(O)CCC2 (stereo not shown) [Example 162, 2-(2-Hydroxymethyl-4-pyrrolidin-1-yl-phenyl)-4,5,6,7-tetrahydro-benzothiazol-7-ol]
[1]
  IC50: 0.046 µM
  Selectivity Ratio F3: 333
[2]
  IC50: 0.05 µM
  Selectivity Ratio D8: 304
[3]
  IC50: 15.3 µM

## OC1CCCc2nc(-c3ccc(N4CCNCC4)cc3)sc21 (stereo not shown) [Example 163, 2-(4-piperazin-1-yl-phenyl)-4,5,6,7-tetrahydrobenzothiazol-7-ol]
[1]
  IC50: 22.9 µM
  Selectivity Ratio F3: 1
[2]
  IC50: 25.9 µM
  Selectivity Ratio D8: 1
[3]
  IC50: 31.6 µM
